Test results reported in ChEMBL document CHEMBL1138159, “Enantiomer discrimination illustrated by the high resolution crystal structures of type 4 phosphodiesterase” (J Med Chem, 2006).

Experiments:
[1] = target: T1, 3',5'-cyclic-AMP phosphodiesterase 4A (Homo sapiens, UniProt P27815); assay: Inhibition of PDE4A with respect to increase in cAMP concentration
[2] = target: 3',5'-cyclic-AMP phosphodiesterase 4B (Homo sapiens, UniProt Q07343); assay: Inhibition of PDE4B
[3] = target: 3',5'-cyclic-AMP phosphodiesterase 4C (Homo sapiens, UniProt Q08493); assay: Inhibition of PDE4C
3',5'-cyclic-AMP phosphodiesterase 4C, sequence (Q08493 whole entry): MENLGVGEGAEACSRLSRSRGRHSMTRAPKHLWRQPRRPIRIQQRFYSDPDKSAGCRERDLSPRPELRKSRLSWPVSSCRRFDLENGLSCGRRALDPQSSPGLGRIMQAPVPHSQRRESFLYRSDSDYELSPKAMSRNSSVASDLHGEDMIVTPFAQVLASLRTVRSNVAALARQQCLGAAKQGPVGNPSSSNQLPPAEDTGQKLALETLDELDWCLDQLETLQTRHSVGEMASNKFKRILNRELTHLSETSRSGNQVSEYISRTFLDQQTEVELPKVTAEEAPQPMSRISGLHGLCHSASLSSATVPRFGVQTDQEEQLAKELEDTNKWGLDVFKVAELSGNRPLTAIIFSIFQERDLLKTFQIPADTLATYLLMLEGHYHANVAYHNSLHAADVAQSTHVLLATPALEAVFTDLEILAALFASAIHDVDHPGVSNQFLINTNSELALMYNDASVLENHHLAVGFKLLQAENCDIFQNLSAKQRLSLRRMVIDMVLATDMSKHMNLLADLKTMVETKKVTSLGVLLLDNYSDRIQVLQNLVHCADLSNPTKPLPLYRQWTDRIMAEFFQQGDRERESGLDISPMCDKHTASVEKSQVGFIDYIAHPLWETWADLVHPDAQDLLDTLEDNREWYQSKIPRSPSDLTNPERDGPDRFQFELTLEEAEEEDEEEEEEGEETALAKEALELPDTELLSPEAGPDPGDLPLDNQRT

[4] = target: T1, 3',5'-cyclic-AMP phosphodiesterase 4A; assay: Inhibition of PDE4A

T1 sequence (P27815 whole entry): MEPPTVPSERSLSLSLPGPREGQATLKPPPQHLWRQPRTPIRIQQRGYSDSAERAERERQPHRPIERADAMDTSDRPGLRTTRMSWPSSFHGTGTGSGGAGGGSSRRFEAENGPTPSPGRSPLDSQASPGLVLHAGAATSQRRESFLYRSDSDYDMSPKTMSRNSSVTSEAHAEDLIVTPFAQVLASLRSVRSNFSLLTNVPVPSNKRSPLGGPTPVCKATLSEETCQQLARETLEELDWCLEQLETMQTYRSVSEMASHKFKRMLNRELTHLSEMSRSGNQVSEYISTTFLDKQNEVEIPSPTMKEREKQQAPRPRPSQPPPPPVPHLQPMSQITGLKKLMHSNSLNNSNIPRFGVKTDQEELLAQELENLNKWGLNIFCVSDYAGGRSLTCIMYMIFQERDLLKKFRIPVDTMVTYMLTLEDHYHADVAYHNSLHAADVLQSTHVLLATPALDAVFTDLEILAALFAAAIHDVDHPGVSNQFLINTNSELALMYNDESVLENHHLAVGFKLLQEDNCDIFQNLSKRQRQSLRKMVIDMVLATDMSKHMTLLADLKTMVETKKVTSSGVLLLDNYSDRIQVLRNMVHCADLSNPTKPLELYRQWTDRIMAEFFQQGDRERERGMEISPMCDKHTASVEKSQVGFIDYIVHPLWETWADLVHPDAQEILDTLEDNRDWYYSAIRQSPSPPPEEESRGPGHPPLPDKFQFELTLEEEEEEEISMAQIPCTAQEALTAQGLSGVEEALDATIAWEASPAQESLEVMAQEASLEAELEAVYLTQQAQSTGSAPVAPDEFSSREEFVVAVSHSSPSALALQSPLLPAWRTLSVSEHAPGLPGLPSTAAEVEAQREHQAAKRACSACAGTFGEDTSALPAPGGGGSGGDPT
3',5'-cyclic-AMP phosphodiesterase 4B, sequence (Q07343 whole entry): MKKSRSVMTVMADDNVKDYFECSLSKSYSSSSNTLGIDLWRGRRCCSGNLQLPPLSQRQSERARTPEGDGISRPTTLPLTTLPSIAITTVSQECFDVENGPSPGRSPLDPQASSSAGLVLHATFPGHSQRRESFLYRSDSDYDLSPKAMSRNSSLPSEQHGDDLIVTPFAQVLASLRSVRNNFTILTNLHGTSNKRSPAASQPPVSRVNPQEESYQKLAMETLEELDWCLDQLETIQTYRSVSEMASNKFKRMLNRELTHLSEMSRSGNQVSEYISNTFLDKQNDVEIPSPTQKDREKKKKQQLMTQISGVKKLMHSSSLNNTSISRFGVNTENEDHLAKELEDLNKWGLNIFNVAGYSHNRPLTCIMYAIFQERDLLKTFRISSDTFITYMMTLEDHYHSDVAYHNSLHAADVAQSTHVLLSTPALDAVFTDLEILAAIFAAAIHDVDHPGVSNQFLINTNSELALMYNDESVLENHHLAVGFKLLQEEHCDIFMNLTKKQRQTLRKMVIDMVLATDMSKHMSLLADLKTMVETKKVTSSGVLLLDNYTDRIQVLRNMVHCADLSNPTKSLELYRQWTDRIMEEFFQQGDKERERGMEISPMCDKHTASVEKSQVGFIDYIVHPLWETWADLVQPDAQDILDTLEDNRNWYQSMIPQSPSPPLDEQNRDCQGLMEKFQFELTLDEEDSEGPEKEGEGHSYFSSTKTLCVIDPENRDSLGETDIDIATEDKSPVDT

Row | SMILES | Ki [1] | IC50 [2] | IC50 [3] | IC50 [4]
1 | [O-][n+]1cccc(C[C@@H](c2ccc(OC(F)F)c(OC3CC3)c2)c2cnc(C(O)(C(F)(F)F)C(F)(F)F)s2)c1 | 0.43 nM |  |  | 
2 | [O-][n+]1cccc(C[C@H](c2ccc(OC(F)F)c(OC3CC3)c2)c2cnc(C(O)(C(F)(F)F)C(F)(F)F)s2)c1 |  | 40 nM | 135 nM | 56 nM
